Legend:
T98G = experiment: MTT assay, T98G; type: cell-based; details: Homo sapiens, 24 h of incubation, read-out: IC50 values ± SEM, MTT assay
Method: Human glioblastoma cell lines (A172 CRL-1620™, U-87 MG HTB-14™, U-118 MG HTB-15™, T98G CRL-1690™) and the mouse astrocyte cell line (C8-D1A CRL-2541™) were obtained from the American Type Culture Collection (ATCC, Manassas, VA, USA). The cell lines were cultured in complete medium: DMEM (Corning, Kennebunk, ME, USA) for C8-D1A and T98G, and EMEM (ATCC, Manassas, VA, USA) for A172, U-87 MG, U118MG. The media were supplemented with 10% foetal bovine serum (Eurx, Gdansk, Poland) and 1% penicillin-streptomycin solution (Corning, Kennebunk, ME, USA). Cells were cultured in cell culture flasks (Sarstedt, Numbrecht, Germany) at 37 °C in 5% CO2. For experiments, cells were washed with phosphate-buffered saline without calcium and magnesium (Corning, Kennebunk, ME, USA) and treated with 0.05% trypsin and 0.02% EDTA (Corning, Kennebunk, ME, USA). Cells were counted using a Sceptre 3.0 cell counter (Merck Millipore, Burlington, MA, USA) prior to seeding into plates. For 6-well plates, 5 x 10^5 cells/mL were seeded, while for 96-well plates (Sarstedt, Numbrecht, Germany), 1 x 10^5 cells/mL were seeded in 100 μL of the medium.
The cell lines were seeded in 96-well plates and cultured according to the methodology described in the previous section. Cells were then treated with the novel derivatives MM118 and MM119 and the reference compound temozolomide (TMZ) (Sigma-Aldrich, St. Louis, MO, USA) at concentrations of 0.1, 0.25, 0.5, 1.0, 2.5, 5.0, and 10.0 μM for 24 h. The MTT assay was performed using a solution of 3–(4,5-dimethyl-2-thiazolyl)-2,5-diphenyl-2H-tetrazolium bromide (Sigma-Aldrich, St. Louis, MO, USA) at a concentration of 5 mg/mL in phosphate-buffered saline without calcium and magnesium (Corning, Kennebunk, ME, USA). After 24 h incubation with test compounds, 10 μL MTT solution was added to each well, and cells were incubated for another 2 h at 37 °C. The cells were then lysed in 100 μL lysis buffer (25 mM HCl, 2% acetic acid, 3% DMF, and 5% SDS, adjusted to pH 4.7). Absorbance was measured at 570 nm using an Absorbance 96 microplate reader (Byonoy GmbH, Hamburg, Germany).

[1] = Annexin V-FITC/PI apoptosis analysis, A172; type: cell-based, human; details: human, A172 cells, read-out: Viable cells; for viability at 24 h, 1 µM: A172, 1.0 μM; for viability at 24 h, 1.5 µM: A172, 1.5 μM
Method: (§1) The level of apoptosis induction of the newly synthesised compounds MM118 and MM119 was determined using double staining with Annexin V-FITC and propidium iodide (AV/PI). This method enables the differentiation of four cell populations based on their state: viable cells, necrotic cells, cells in early apoptosis, and late apoptosis. The compounds were analysed on A172 and U-87 MG human glioblastoma multiforme cell lines using concentrations of 1 μM and 1.5 μM over a 24-h exposure period.
(§2) The impact of apoptosis induction by the tested compounds at concentrations of 1 μM and 1.5 μM, as well as by temozolomide at 1.5 μM, was evaluated through annexin V-FITC and propidium iodide (PI) staining with the Apoptosis Detection Kit II (BD Biosciences, San Diego, CA, USA). The glioblastoma cell lines A172 and U-87 MG were then deprived of medium and washed several times with cold phosphate-buffered saline (PBS) solution. The cell suspension was then prepared in the binding buffer provided in the kit at a concentration of 1 × 10^6 cells/mL. From each sample, 100 μL of the cell suspension was transferred to tubes and subsequently treated with 5 μL of Annexin V-FITC and 5 μL of propidium iodide (PI). The tubes were then incubated for 15 min at room temperature in the dark. Following the incubation period, 400 μL of binding buffer was added to each sample, after which the samples were immediately analysed using a BD FACSCanto II flow cytometer (Becton Dickinson Biosciences, San Jose, CA, USA), with 10,000 events recorded per sample. The results were then analysed using FACSDiva Software Version 6.1.3 (BD Biosciences Systems, San Jose, CA, USA).

A172 [2] = experiment: Annexin V-FITC/PI apoptosis analysis, A172; type: cell-based, human; details: A172, 1.5 μM, 24 h
Method: as §1, §2

A172 [3] = experiment: Reactive oxygen species, H2DCFDA/DAPI staining, A172; type: cell-based, human; details: A172, 30 min of compound treatment
Method: We performed double staining with DAPI, which stains nuclear genetic material (blue fluorescence), and H2DCFDA, an indicator of oxidative stress (green fluorescence). This study allowed us to evaluate the ability of MM118 and MM119 to activate reactive oxygen species (ROS) in A172 and U-87 MG glial cells.
The impact of the tested compounds on reactive oxygen species (ROS) production was assessed. Cells were seeded in 6-well culture plates at a density of 1 × 10^5 cells per well in 1 ml of medium. Following a 30-min treatment with the compounds, cells were washed with phosphate-buffered saline (PBS). Subsequently, double staining was performed using 20 µM 2′,7′-dichlorodihydrofluorescein diacetate (H2DCFDA) (obtained from Thermo Fisher Scientific, Eugene, OR, USA). This colourless reagent is hydrolysed by intracellular esterases and subsequently oxidised to the 2′,7′-dichlorofluorescein (DCF), and 10 µg/mL of 4′,6-diamidino-2-phenylindole (DAPI) (Sigma-Aldrich, St. Louis, MO, USA) was used to stain nuclear DNA. Fluorescence was observed using a Nikon ECLIPSE Ti fluorescence microscope (Nikon, Tokyo, Japan). ImageJ software (Bethesda, MD, USA) was used for data analysis, with DCF fluorescence intensity measured relative to the control. A minimum of 100 cells per sample were analysed.

Structure (SMILES) | IC50 (T98G) | viability at 24 h, 1 µM [1] | viability at 24 h, 1.5 µM [1] | Early apoptotic cells (A172 [2]) | Late apoptotic cells (A172 [2]) | Necrotic cells (A172 [2]) | ROS, mean green (DCF) fluorescence (A172 [3])
CCC(CO)NS(=O)(=O)c1ccc(-n2nc(C)c3nc4nnnn4nc32)cc1 (stereo in doubt) [MM119, N-(S)-(1-hydroxy-but-2-yl)-4-[7-methyl-5H-pyrazolo[4,3-e]tetrazolo[1,5-b][1]^,[2]^,[4]triazin-5-yl)]benzenesulfonamide] | 4.41 ± 1.19 µM | 90.7% | 74.8 ± 1.84% | 1.00 ± 0.28% | 18.80 ± 1.35% | 2.13 ± 0.62% | increase in mean green fluorescence
CCC(CO)NS(=O)(=O)c1ccc(-n2nc(C)c3nc4nnnn4nc32)cc1 (stereo in doubt) [MM118, N-(R)-(1-hydroxy-but-2-yl)-4-[7-methyl-5H-pyrazolo[4,3-e]tetrazolo[1,5-b][1]^,[2]^,[4]triazin-5-yl)]benzenesulfonamide] | 2.44 ± 0.393 µM | 88.2% | 65.5 ± 5.06% | 3.03 ± 0.44% | 22.10 ± 6.56% | 9.50 ± 2.10% | increase in mean green fluorescence
Cn1nnc2c(C(N)=O)ncn2c1=O [TMZ, temozolomide, reference compound] | > 10 µM | – | 89.75 ± 0.71% | 1.55 ± 0.06% | 6.83 ± 0.39% | 1.90 ± 0.38% | –

Reference: PMC12679848, “Sulphonamide derivatives with a triazine core as novel inducers of apoptosis and pyroptosis in glioblastoma multiforme cells” (Journal of Enzyme Inhibition and Medicinal Chemistry, 2025)
